# Biological target: Dipeptidyl peptidase 2 (Homo sapiens, UniProt Q9UHL4)
# Test: hDPP7 Inhibition Assay
# Method: Table 4: Compounds were tested in a biochemical inhibition assay using human dipeptidylpeptidase 7 (hDPP7) enzyme at 15 nM FAC (BPS Bioscience, #80070) and the substrate Ala-Pro-amino-methylcoumarin (BPS Bioscience, #80305) at 5 μM FAC. The enzymatic reactions were conducted in duplicate at rt for 30 min in 50 μL DPP assay buffer (BPS Bioscience, #80300). Compound solutions (in DMSO) at 10 CR, 3 fold dilution series were prepared in assay buffer ten-fold higher than the final concentration, and 5 μL of the dilution was added to a 50 μL reaction so that the highest compound concentration was 100 μM FAC and the concentration of DMSO was 1% in all wells. The plates were read on a Tecan Infinite M1000 microplate reader with excitation 340 nm and emission 460 nm. Data were analyzed in Graph Pad Prism. IC50 values were determined by plotting % inhibition versus log compound concentration and using a one site dose response model. Raw data signals were normalized using 1% DMSO as 0% control and no enzyme as 100% inhibitor control.
compound,measurement,value
"Cc1cc(N2CCOCC2)cc2c(C(=O)NCC(=O)N3CSC[C@H]3C#N)ccnc12 [US20230312550, Example 9]",IC50,> 100 µM

# Source: BindingDB's records for patent US20230312550 (Astrazeneca, 2023)
